Calls of active or inactive are those of the source. The calls are words filed in the database; no cut-off is given here.
Test system: NUGC
Assay: Cytotoxicity against human NUGC cells at 10 uM
Type: functional, cell-based

C#CC(O)/C=C/CCCCCCCCC/C=C\CCCCCCCCC/C=C/C(O)C#C (configuration not stated)
Activity: Active

C#CC(O)/C=C/CCCCCCCCCCCCC#CCCCCCCCCCCC#CC#CCO (configuration not stated)
Activity: Active
